From patent publication US12636238B2, “Hypochlorous acid-based eyelid cleansers” (OCuSOFT, Inc., priority 2023, dated 2026)
Where two headings read alike, the source gives them in different places.

Assay: comparative stability of hypochlorous acid in the presence of various ingredients (free available chlorine, FAC)
Type: physicochemical
Source text: Free available chlorine or free active chlorine (FAC) refers to the amount of chlorine that is available to disinfect or kill microorganisms. Importantly, FAC covers many forms of chlorine, such as hypochlorous acid and hypohalite anion, in addition to freely available chlorine. Measurement and quantification of FAC is typically accomplished by a titration or colorimetric method. In certain embodiments, the eyelid cleanser composition contains 10 to 300 ppm of free available chlorine (FAC).
Table 1 illustrates the comparative stability of hypochlorous acid in the presence of various ingredients. The inventors determined that only specific ingredients disclosed in the disclosed embodiments are compatible with hypochlorous acid. For example, after 7 days in solution with sodium laureth sulfate, the FAC concentration decreased by about 4% per day.

[1] = FAC, component 0.01 M, time 2 days
[2] = component tested at 0.01 M in hypochlorous acid solution, start
[3] = component tested at 0.50%, start
[4] = component tested at 0.5%^, start

CC(=O)O [Acetic Acid]
% change/day [1]: 2%
FAC End (component 0.01 M, time 2 days): 384.6 ppm
FAC Start [2]: 367.5 ppm

O=C(O)CC(O)(CC(=O)O)C(=O)O [Citric Acid]
% change/day [1]: −49%
FAC End (component 0.01 M, time 2 days): 5.1 ppm
FAC Start [2]: 188.9 ppm

CC(C)(CO)C(O)C(=O)NCCCO (centres unmarked) [DI-Panthenol]
% change/day (FAC, component 1%, time 3 days): −26%
FAC End (component 1%, time 3 days): 23 ppm
FAC Start (component tested at 1%, start): 101 ppm

CCCCCCCCCCO[C@@H]1O[C@H](CO)[C@@H](O)[C@H](O)[C@H]1O [Decyl Glucoside]
% change/day (FAC, component 1%, time 3 days): −100%
FAC End (component 1%, time 3 days): 0 ppm
FAC Start (component tested at 1%, start): 3 ppm
degradation of hypochlorous acid (observation) (in the presence of the component): immediate degradation

CCCCCCCCOC(=O)CC(C(=O)OCCCCCCCC)S(=O)(=O)O.[Na] (centres unmarked) [Dioctyl Sulfosuccinate Sodium]
% change/day (FAC, component 0.50%, time 10 days): −6%
% change/day (FAC, component 0.5%^, time 38 days): −1%
FAC End (component 0.50%, time 10 days): 113 ppm
FAC End (component 0.5%^, time 38 days): 194 ppm
FAC Start [3]: 289 ppm
FAC Start [4]: 289 ppm

OCC(O)CO [Glycerin]
% change/day (FAC, component 1%, time 3 days): −17%
FAC End (component 1%, time 3 days): 50 ppm
FAC Start (component tested at 1%, start): 102 ppm

CC(O)CO (centres unmarked) [Propylene Glycol]
% change/day (FAC, component 1%, time 3 days): −11%
FAC End (component 1%, time 3 days): 67 ppm
FAC Start (component tested at 1%, start): 99 ppm

CC(=O)[O-].[Na+] [Sodium Acetate]
% change/day: 2%
FAC End: 377 ppm
FAC Start: 362.1 ppm

O=C([O-])CC(O)(CC(=O)[O-])C(=O)[O-].[Na+].[Na+].[Na+] [Sodium Citrate]
% change/day [1]: −49%
FAC End (component 0.01 M, time 2 days): 2.6 ppm
FAC Start [2]: 125.1 ppm

O=P([O-])([O-])O.[Na+].[Na+] [Sodium Dibasic Phosphate]
% change/day [1]: 16%
FAC End (component 0.01 M, time 2 days): 331.1 ppm
FAC Start [2]: 250 ppm

CCCCCCCCCCCCOS(=O)(=O)[O-].[Na+] [Sodium Lauryl Sulfate]
% change/day (FAC, component 0.5%^, time 238 days): 0%
FAC End (component 0.5%^, time 238 days): 11 ppm
FAC Start [4]: 267 ppm

O=P([O-])(O)O.[Na+] [Sodium Monobasic Phosphate]
% change/day [1]: 2%
FAC End (component 0.01 M, time 2 days): 374.4 ppm
FAC Start [2]: 361.4 ppm

Polysorbate 20
% change/day (FAC, component 0.50%, time 2 days): −16%
FAC End (component 0.50%, time 2 days): 264.9 ppm
FAC Start [3]: 391 ppm

Sodium Laureth Sulfate
% change/day (FAC, component 0.5%^, time 7 days): −4%
FAC concentration decrease (after 7 days in solution): about 4 % per day
FAC End (component 0.5%^, time 7 days): 208 ppm
FAC Start [4]: 287 ppm
